Source: US11117912B1, “Platinum(II) complexes containing dicyclopentadiene and dithiocarbamate as anticancer agents” (King Fahd University of Petroleum and Minerals, priority 2020, dated 2021)

Legend:
A549 cells [1] = experiment: xCelligence real-time cell analysis (RTCA) cytotoxicity assay, A549; assay type: cell-based, human
Experimental: (§1) The A549 and HeLa cell lines were cultured directly in DMEM (Dulbecco's Modified Eagle Medium), and then supplemented with 10% fetal bovine serum (FBS) and 1% streptomycin/penicillin. Then, the cancer cell samples were kept in a humidified incubator at 37° C. with 5% CO2.
(§2) The cytotoxicity of complexes was measured using xCelligence RTCA DP system (ACEA Biosciences, San Diego, Calif., USA). Briefly, the instrument was positioned in a humidified incubator at 37° C. with 5% CO2. The cytotoxicity experiments were conducted using modified 16-well plate (E-plate) with gold-microelectrodes attached at the base of the wells for the impedance-based attachment detection, cell distribution, and proliferation. A 50 μL of cell-free growth DMEM with 10% FBS was added to the wells. Then, the system was connected to measure the background impedance for each well for 30 min. A549 and HeLa cells were harvested using 0.05% Trypsin-EDTA (ethylenediaminetetraacetic acid), and then counted using LUNA automated cell counter (Logos Biosystem, Seoul, South Korea). 50 μL of the cell suspension was then added directly to each well containing 50 μL of cell-free growth DMEM with 10% FBS—Final to reach cell density of 5×10^3. The plates were left at room temperature for about 30 minutes and then inserted to xCelligence RTCA DP device. The xCelligence RTCA system software v.2.0 automatically monitored the impedance value of individual well. These values are expressed as CI (Cell Index) every 15 minutes. […] Then, cells were real time-monitored for 72 hours. All tested compounds were dissolved in DMSO, while cisplatin in normal saline solution. The final concentration of DMSO was less than 0.1% in each well. For negative control, 0.1% DMSO solution was used. Then IC50 values for all compounds at 24 hours and 72 hours were calculated using RTCA software v.2.0.
(§3) For all impedance profiles, the sigmoidal dose-response curves (FIGS. 2A-D) were obtained, and IC50 values were calculated (see Table 4). The calculations were based upon the CI, which is a relative and dimensionless value representing the impedance change divided by the background value, and thus reflects the overall number of cells and the quality of their attachment [D. Kho, C. MacDonald, R. Johnson, C. P. Unsworth, S. J. O'Carroll, E. du Mez, C. E. Angel, E. S. Graham. […] Biosensors 5 (2015) 199-222, incorporated herein by reference in its entirety]. The CI can change as a function of time, resulting in time-dependent and dose-dependent impedance profiles during an experiment [D. Kho, C. MacDonald, R. Johnson, C. P. Unsworth, S. J. O'Carroll, E. du Mez, C. E. Angel, E. S. Graham. […] Biosensors 5 (2015) 199-222, incorporated herein by reference in its entirety].

A549 cells [2] = experiment: Lactate dehydrogenase (LDH) release assay, A549; assay type: cell-based, human; details: 72 hours
Experimental: (§4) The release of lactate dehydrogenase (LDH) of A549 and HeLa cells in response to the cytotoxic effect of complexes 1 and 2 was measured using the LDH cytotoxic kit protocol (Dojindo, japan). The A549 and HeLa cells were plated into 96-well plate at 5×10^5 density for overnight. The cells were treated with complexes (1 and 2) at concentrations of IC25 (0.9 μM), IC50 (1.8 […]), and IC100 (3.6 μM) in triplicate for about 72 hours. In the day of reading, 10 μL of the Lysis Buffer was added to each well of the high control. The plate was incubated at 37° C. in CO2 incubator for 30 minutes. Then, 100 μL of the Working Solution was added to each well and incubated at room temperature for 30 minutes. Then, 50 μL of the Stop Solution was added to each well before measuring the absorbance at 490 nm using Mithras 943 micro-plate reader (Berthold Tech, Wildbad, Germany). The high control (DMSO+Cells suspension+lysis buffer) and low control (DMSO+cell suspension) were used to determine the percentage of fold changes in LDH according to the following equation (I). % in LDH changes=(Low control−Test)/(Low control−High control)×100 (I)
(§5) The release of lactate dehydrogenase (LDH) directly into the culture medium is an indication of loss of membrane integrity of a cell due to necrosis or apoptosis. Therefore, the LDH activity in the medium can be used as an indicator for cell membrane integrity, and thus for measuring cytotoxicity. […] The cytotoxic effect of complexes 1 and 2 was evaluated by the release of lactate dehydrogenase (LDH) on treated cells (A549 and HeLa). The cells were treated with the complexes at concentrations of 0.9 μM, 1.8 μM, and 3.6 μM, respectively, for 72 hours.

HeLa cells [3] = experiment: Lactate dehydrogenase (LDH) release assay, HeLa; assay type: cell-based, human; details: 72 hours
Experimental: as §4, §5

HeLa cells [4] = experiment: xCelligence real-time cell analysis (RTCA) cytotoxicity assay, HeLa; assay type: cell-based, human
Experimental: as §1, §2, §3

mice = experiment: Acute kidney toxicity study
Excerpt: The mice were separated into three groups ((I), (II), and (III)) with four animals per each cage. Group (I) was served as normal control group, which received only vehicle (0.1 volume % DMSO). […] Six hours prior to the experiment, no food and water were given. […] On the day three, the animals were sacrificed by the overdose of xylazine and ketamine anesthesia. Blood samples were collected for Blood Urea Nitrogen (BUN) and serum creatinine (CRE2) measurements. All mice were allowed one week to acclimatize prior to the experiments (five animals per cage), under standard environmental conditions (12 h light-dark cycle). The animal studies were performed according to the king Saud University ethical committee.
Kidney biochemical markers, BUN and CRE2, were used for nephrotoxicity study.

HeLa cells [5] = experiment: Wound healing assay (cell migration); assay type: cell-based, human; details: for cells migrated, % of the cell-free area (scratch closure): DMSO control approximately 73%
Experimental: The Culture-Insert 2 Well (ibidi Gmbh, Germany) was placed into micro-plate 24. 70 μL of 5×10^5 of HeLa cells was seeded into the culture-insert. The seeded cells were incubated for 24 hours under a specific condition (37° C., 5% CO2) to form monolayer cells. After 24 hours of the incubation, the culture-inserts were removed and the cells were gently washed with PBS to remove cell debris and detached cells. The cells were then treated with the cell culture mediums containing complex 1 at specific concentrations (1, 3, 10, 30 μM) and containing 0.1% DMSO as control. All assays were conducted in duplicates. In order to analyze the migration capacity, images of the cells were taken at 0 hours, 6 hours, and 12 hours using Optika microscope, Italy. The gap closure was determined using a web-based quantitative image solution (http://www.metavilabs.com/metavi2/index.html)
Cell migration is essential in the development and maintenance of multicellular organism. It plays a central role in tissue formation during embryonic development, organ formation, immune responses, and most importantly (as in this experiment) in wound healing. Wound healing assay is a standard in vitro technique to determine collective cell migration in two dimensions. In this assay, an insert is used to create a cell-free gap in confluent monolayer cells. The wound healing assay is initiated by removing the insert. The cell-free gap is then exposed to the cell culture medium to induce the cells to migrate into the gap until new cell-to-cell contacts are established.
The wound healing images were recorded at three different time intervals using microscope to assess the directional collective migration of the cells. The rate of wound healing was determined by measuring the change in the gap size of the cell-free area after treatment with various concentrations of complex 1 recorded over specific time-intervals (e.g., 0 hour, 6 hours, and 12 hours). The gap was measured for each frame in the wound healing and plotted as a function of time to determine the cell migration rate. The effect of varying concentration of complex 1 (1, […], 10, 30 μM) and 0.1% of DMSO (control cells) against HeLa cell migration rate was studied. […] Meanwhile, the cells treated with four different concentrations of complex 1 (1, 3, 10, 30 μM) migrated approximately 57%, 54%, 49%, and 28%, respectively. […] Further molecular studies are required to understand the mechanism behind the inhibition of cell migration.

[6] = equimolar single doses of 25 mg/kg, 72 hours

SMILES	IC50 (A549 cells [1]; A549, 24 hours)	IC50 (A549 cells [1]; A549, 72 hours)	Percent (%) release of LDH (A549 cells [2]; A549, 0.9 μM)	Percent (%) release of LDH (A549 cells [2]; A549, 1.8 μM)	Percent (%) release of LDH (A549 cells [2]; A549, 3.6 μM)	Percent (%) release of LDH (HeLa cells [3]; 0.9 μM)	Percent (%) release of LDH (HeLa cells [3]; 1.8 μM)	Percent (%) release of LDH (HeLa cells [3]; 3.6 μM)	IC50 (HeLa cells [4]; 24 hours)	IC50 (HeLa cells [4]; 72 hours)	further results
C1=CC2C3C=CC(C3)C2C1.CCN(CC)C(=S)[S][Pt+].F[P-](F)(F)(F)(F)F (centres unmarked) [Complex 2]	7.61 µM	3.37 µM	32.18 ± 0.004%	41.05 ± 0.01%	44.85 ± 0.01%	45.52 ± 0.001%	68.19 ± 0.04%	94.13 ± 0.05%	6.1 µM	3.52 µM	–
N.N.[Cl][Pt][Cl] [Cisplatin, reference compound]	> 30 µM	> 30 µM	–	–	–	–	–	–	> 30 µM	> 30 µM	–
C1=CC2C3C=CC(C3)C2C1.CN(C)C(=S)[S][Pt+].F[P-](F)(F)(F)(F)F (centres unmarked) [Complex 1]	2.92 µM	1.74 µM	31.93 ± 0.01%	43.33 ± 0.02%	47.00 ± 0.01%	60.16 ± 0.02%	73.07 ± 0.03%	95.57 ± 0.02%	1.72 µM	1.87 µM	Blood Urea Nitrogen (BUN) level in Plasma (mice; 72 h after single dose, 25 mg/kg cisplatin or equimolar complex 1, CTR 6.7 ± 0.1): 6.06 ± 0.08; Creatinine (CRE2) level in Plasma (mice; 72 h after single dose, 25 mg/kg cisplatin or equimolar complex 1, CTR 17.4 ± 0.58): 15.8 ± 0.45; BUN and CRE2 levels in response to the complex (in words) (mice; 72 hours): control and normal; physical or abnormal changes (mice; [6]): No physical or abnormal changes; survival of the treatment period (mice; [6]): all animals survived; acute kidney toxicity compared to cisplatin (mice; nephrotoxicity tests): less toxic compared to cisplatin; cells migrated, % of the cell-free area (scratch closure) (HeLa cells [5]; 1 μM): approximately 57%; cells migrated, % of the cell-free area (scratch closure) (HeLa cells [5]; 3 μM): ~54%; cells migrated, % of the cell-free area (scratch closure) (HeLa cells [5]; 10 μM): ~49%; cells migrated, % of the cell-free area (scratch closure) (HeLa cells [5]; 30 μM): ~28%; effect on cell migration rate (HeLa cells [5]; 1-30 μM, 0-12 h): slowed down the cell migration rate in a concentration-dependent manner
C1=CC2C3C=CC(C3)C2C1.F[P-](F)(F)(F)(F)F.S=C([S][Pt+])N(Cc1ccccc1)Cc1ccccc1 [Complex 3]	3.31 µM	7.83 µM	–	–	–	–	–	–	3.18 µM	11.4 µM	change in cytotoxicity with longer exposure time (A549 cells [1]; A549, 24 vs 72 hours): a decrease in cytotoxicity was observed with longer exposure time; change in cytotoxicity with longer exposure time (HeLa cells [4]; 24 vs 72 hours): a decrease in cytotoxicity was observed with longer exposure time
